According to patent publication US12227501B2, “3-amino-2-[2-(acylamino)pyridin-4-yl]-1,5,6,7-tetrahydro-4h-pyrrolo[3,2-c]pyridin-4-one as CSNK1 inhibitors” (Bayer Aktiengesellschaft, priority 2019, dated 2025):
Where “and” joins values, the source holds several entries; their conditions need not be identical. Equal entries are not always repeated. Where two headings read alike, the source gives them in different places.

Key:
Type in all cases: biochemical
[1] = molecular target: wild-type Epidermal Growth Factor Receptor (EGFR) (Homo sapiens (Human), UniProt P00533); test: WT-EGFR Kinase Assay (TR-FRET, 2 mM ATP)
human CSNK1A1 [2] = molecular target: T1, human CSNK1A1 (Homo sapiens (Human), UniProt P48729); test: CSNK1A1 High ATP Assay (ADP-Glo, 1 mM ATP); conditions: read-out: CSNK1A1 high ATP assay IC50 [mol/l] (median)
Summary of the method: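 Kinase activity taken as ADP generated, quantified by ADP-Glo luminescence after 1 h ATP depletion and 1 h detection at 22 °C. Enzyme is GST–full-length human CSNK1A1 (insect cell-expressed), pre-bound to compound for 15 min, with phosphopeptide substrate and 1 mM ATP.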

human CSNK1A1 [3] = molecular target: T1, human CSNK1A1; test: CSNK1A1 Assay 2 (ADP-Glo, 1 μM ATP); conditions: substrate biotin-Ahx-KRRRAL-pS-VASLPGL, read-out: CSNK1A1 Assay 2 IC50 [mol/l] (median)
Summary of the method: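 Full-length human CSNK1A1 as an N-terminal GST fusion (baculovirus/insect cells) with biotinylated peptide substrate biotin-Ahx-KRRRAL-pS-VASLPGL and 1 μM ATP, in HEPES pH 7.5 buffer. Compounds were pre-incubated with enzyme (~0.0375 ng/μL) for 15 min at 22 °C. Generated ADP was read by ADP-Glo luminescence as the activity measure.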

human CSNK1D = human CSNK1D (Homo sapiens (Human), UniProt P48730); test: CSNK1D Assay (ADP-Glo, 1 μM ATP); conditions: read-out: CSNK1D IC50 [mol/l] (median)
Summary of the method: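 Activity is read as ADP produced, by ADP-Glo luminescence after 1 h steps at 22 °C. The reaction uses 1 μM ATP, a biotinylated peptide and insect-cell-expressed GST–CSNK1D (about 0.5 ng/μL) in pH 7.5 HEPES buffer, with 15 min compound–enzyme preincubation.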

[4] = read-out: EGFR Wildtyp- 2 mM ATP IC50 [mol/l] (median)
[5] = EGFR Wildtyp- 2 mM ATP IC50 [mol/l] (median)

T1 sequence (P48729 whole entry): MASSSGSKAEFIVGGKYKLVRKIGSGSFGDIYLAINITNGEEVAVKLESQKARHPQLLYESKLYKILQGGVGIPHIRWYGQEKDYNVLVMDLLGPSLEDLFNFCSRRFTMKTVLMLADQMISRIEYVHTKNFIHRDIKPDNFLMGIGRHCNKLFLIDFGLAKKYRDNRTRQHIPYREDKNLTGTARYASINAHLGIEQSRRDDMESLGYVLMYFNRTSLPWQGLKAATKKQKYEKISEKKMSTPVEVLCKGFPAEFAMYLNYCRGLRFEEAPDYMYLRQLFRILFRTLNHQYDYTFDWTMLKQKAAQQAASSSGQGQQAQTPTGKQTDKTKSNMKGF
Chain of wild-type Epidermal Growth Factor Receptor (EGFR) (P00533 669-1210): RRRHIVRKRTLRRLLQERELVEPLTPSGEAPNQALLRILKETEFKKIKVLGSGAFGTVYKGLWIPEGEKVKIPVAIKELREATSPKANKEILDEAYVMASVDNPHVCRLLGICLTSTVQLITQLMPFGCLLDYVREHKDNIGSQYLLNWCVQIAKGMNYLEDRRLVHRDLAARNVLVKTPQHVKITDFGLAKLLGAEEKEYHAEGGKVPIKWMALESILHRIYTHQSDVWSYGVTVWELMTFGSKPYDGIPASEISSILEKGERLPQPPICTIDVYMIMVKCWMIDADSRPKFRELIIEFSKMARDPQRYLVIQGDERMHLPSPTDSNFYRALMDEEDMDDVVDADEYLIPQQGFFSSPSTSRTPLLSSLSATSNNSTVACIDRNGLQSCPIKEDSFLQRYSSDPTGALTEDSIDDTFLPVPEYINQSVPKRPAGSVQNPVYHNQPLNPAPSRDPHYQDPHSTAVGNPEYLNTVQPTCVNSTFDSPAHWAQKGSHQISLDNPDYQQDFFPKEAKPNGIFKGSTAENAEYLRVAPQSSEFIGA
Chain of human CSNK1D (P48730 whole entry): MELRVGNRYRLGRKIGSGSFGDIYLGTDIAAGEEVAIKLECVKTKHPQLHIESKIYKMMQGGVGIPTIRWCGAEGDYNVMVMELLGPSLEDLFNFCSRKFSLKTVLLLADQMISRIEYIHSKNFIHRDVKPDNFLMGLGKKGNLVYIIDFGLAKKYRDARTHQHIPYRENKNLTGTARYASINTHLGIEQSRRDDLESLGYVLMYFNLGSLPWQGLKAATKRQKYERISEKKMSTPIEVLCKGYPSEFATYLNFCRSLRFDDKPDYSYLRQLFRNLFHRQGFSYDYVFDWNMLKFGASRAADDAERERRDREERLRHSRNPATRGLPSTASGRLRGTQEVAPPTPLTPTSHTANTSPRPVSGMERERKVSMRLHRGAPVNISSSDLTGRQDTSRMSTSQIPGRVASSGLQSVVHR

Row | Structure (SMILES) | IC50 [1, 4] | IC50 (human CSNK1A1 [2]) | IC50 (human CSNK1A1 [3]) | IC50 (human CSNK1D) | IC50 [1, 5]
1 | CC1(C)Cc2[nH]c(-c3ccnc(NC(=O)Cc4ccc(F)cc4)c3)c(Nc3cccc(F)c3)c2C(=O)N1 [Example 119, N-{4-[3-(3-fluoroanilino)-6,6-dimethyl-4-oxo-4,5,6,7-tetrahydro-1H-pyrrolo[3,2-c]pyridin-2-yl]pyridin-2-yl}-2-(4-fluorophenyl)acetamide] | 2.54 µM | 354 nM | 5.65 nM | 10.8 nM | 
2 | CC(C(=O)Nc1cc(-c2[nH]c3c(c2Nc2ccccc2)C(=O)N(CC(C)(C)O)CC3)ccn1)c1ccc(F)cc1 (centres unmarked) [Example 24, N-{4-[3-anilino-5-(2-hydroxy-2-methylpropyl)-4-oxo-4,5,6,7-tetrahydro-1H-pyrrolo[3,2-c]pyridin-2-yl]pyridin-2-yl}-2-(4-fluorophenyl)propanamide] | > 20 µM | > 5710 nM and 4240 nM | 39.2 nM | 64 nM | 
3 | CC(C(=O)Nc1cc(-c2[nH]c3c(c2Nc2ccccc2)C(=O)N(C)CC3)ccn1)c1ccncc1 (single isomer, unassigned; (+)) [Example 73, (+)-N-[4-(3-anilino-5-methyl-4-oxo-4,5,6,7-tetrahydro-1H-pyrrolo[3,2-c]pyridin-2-yl)pyridin-2-yl]-2-(pyridin-4-yl)propanamide] |  | 63.3 nM | 2.38 nM | 4.46 nM | 6.78 µM
4 | CN1C(=O)c2c([nH]c(-c3ccnc(NC(=O)Cc4ccc(F)cc4)c3)c2Nc2ccccc2)CC1(C)C [Example 44, N-[4-(3-anilino-5,6,6-trimethyl-4-oxo-4,5,6,7-tetrahydro-1H-pyrrolo[3,2-c]pyridin-2-yl)pyridin-2-yl]-2-(4-fluorophenyl)acetamide] | 4.14 µM | 671 nM | 4.82 nM | 10.7 nM | 
5 | CC1(C)Cc2[nH]c(-c3ccnc(NC(=O)Cc4cccnc4)c3)c(Nc3ccccc3)c2C(=O)N1 [Example 52, N-[4-(3-anilino-6,6-dimethyl-4-oxo-4,5,6,7-tetrahydro-1H-pyrrolo[3,2-c]pyridin-2-yl)pyridin-2-yl]-2-(pyridin-3-yl)acetamide] | 0.526 µM | 25.4 nM | 4.91 nM | 6.78 nM | 
6 | CC1Cc2[nH]c(-c3ccnc(NC(=O)Cc4ccncc4)c3)c(Nc3ccccc3)c2C(=O)N1C (single isomer, unassigned; (+)) [Example 98, (+)-N-{4-[(6R*)-3-anilino-5,6-dimethyl-4-oxo-4,5,6,7-tetrahydro-1H-pyrrolo[3,2-c]pyridin-2-yl]pyridin-2-yl}-2-(pyridin-4-yl)acetamide] |  | 149 nM | 4.16 nM | 6.13 nM | 4.34 µM
7 | O=C1NC2(CCC2)Cc2[nH]c(-c3ccnc(NC(=O)C(CC(F)F)c4ccc(F)cc4)c3)c(Nc3ccccc3)c21 (racemic) [Example 54, N-[4-(3′-anilino-4′-oxo-1′,4′,5′,7′-tetrahydrospiro[cyclobutane-1,6′-pyrrolo[3,2-c]pyridin]-2′-yl)pyridin-2-yl]-4,4-difluoro-2-(4-fluorophenyl)butanamide] |  | 14.6 nM | 4.62 nM | 5.5 nM | > 20 µM
8 | CN(C)CCCC(C(=O)Nc1cc(-c2[nH]c3c(c2Nc2ccccc2)C(=O)N(C)CC3)ccn1)c1ccccc1 (single isomer, unassigned; (+)) [Example 60, (+)-N-[4-(3-anilino-5-methyl-4-oxo-4,5,6,7-tetrahydro-1H-pyrrolo[3,2-c]pyridin-2-yl)pyridin-2-yl]-5-(dimethylamino)-2-phenylpentanamide] |  | 437 nM | 7.34 nM | 11.8 nM | 7.34 µM
9 | O=C(Cc1ccc(F)cc1)Nc1cc(-c2[nH]c3c(c2Nc2ccccc2)C(=O)NC(C(F)(F)F)C3)ccn1 (racemic) [Example 43, N-{4-[3-anilino-4-oxo-6-(trifluoromethyl)-4,5,6,7-tetrahydro-1H-pyrrolo[3,2-c]pyridin-2-yl]pyridin-2-yl}-2-(4-fluorophenyl)acetamide] |  | 67.5 nM | 3.52 nM | 7.12 nM | 2 µM
10 | Cc1ccccc1Nc1c(-c2ccnc(NC(=O)C(CC(F)F)c3ccc(F)cc3)c2)[nH]c2c1C(=O)NC1(CCC1)C2 (racemic) [Example 143, 4,4-difluoro-2-(4-fluorophenyl)-N-{4-[3′-(2-methylanilino)-4′-oxo-1′,4′,5′,7′-tetrahydrospiro[cyclobutane-1,6′-pyrrolo[3,2-c]pyridin]-2′-yl]pyridin-2-yl}butanamide (Racemate)] |  | 32 nM | 16.7 nM | 18.4 nM | > 20 µM
11 | Cc1cc(CC(=O)Nc2cc(-c3[nH]c4c(c3Nc3ccccc3)C(=O)N(C)CC4)ccn2)ccn1 [Example 85, N-[4-(3-anilino-5-methyl-4-oxo-4,5,6,7-tetrahydro-1H-pyrrolo[3,2-c]pyridin-2-yl)pyridin-2-yl]-2-(2-methylpyridin-4-yl)acetamide] | 0.937 µM | 26.5 nM | 1.78 nM | 3.36 nM | 
12 | CC1(C)Cc2[nH]c(-c3ccnc(NC(=O)Cc4ccc(F)cc4)c3)c(Nc3ccccc3F)c2C(=O)N1 [Example 86, N-{4-[3-(2-fluoroanilino)-6,6-dimethyl-4-oxo-4,5,6,7-tetrahydro-1H-pyrrolo[3,2-c]pyridin-2-yl]pyridin-2-yl}-2-(4-fluorophenyl)acetamide] | 6.47 µM | 110 nM | 4.44 nM | 9.48 nM | 
13 | CC1(C)Cc2[nH]c(-c3ccnc(NC(=O)C(CC(F)F)c4ccc(F)cc4)c3)c(Nc3ccccc3)c2C(=O)N1 (racemic) [Example 48, N-[4-(3-anilino-6,6-dimethyl-4-oxo-4,5,6,7-tetrahydro-1H-pyrrolo[3,2-c]pyridin-2-yl)pyridin-2-yl]-4,4-difluoro-2-(4-fluorophenyl)butanamide] |  | 37 nM | 7.69 nM | 13.4 nM | 14.5 µM
14 | CC(C(=O)Nc1cc(-c2[nH]c3c(c2Nc2ccccc2)C(=O)N(C)C(C)C3)ccn1)c1ccc(F)cc1 (single isomer, unassigned; (-)) [Example 93, (−)-N-{4-[3-anilino-5,6-dimethyl-4-oxo-4,5,6,7-tetrahydro-1H-pyrrolo[3,2-c]pyridin-2-yl]pyridin-2-yl}-2-(4-fluorophenyl)propanamide] |  | 3180 nM | 47.2 nM | 47.3 nM | > 20 µM
15 | O=C(Cc1ccc(F)cc1)Nc1cc(-c2[nH]c3c(c2Nc2ccccc2)C(=O)NC2(CCC2)C3)ccn1 [Example 57, N-[4-(3′-anilino-4′-oxo-1′,4′,5′,7′-tetrahydrospiro[cyclobutane-1,6′-pyrrolo[3,2-c]pyridin]-2′-yl)pyridin-2-yl]-2-(4-fluorophenyl)acetamide] | 0.87 µM | 10.3 nM | 2.01 nM | 3.1 nM | 
16 | CN1CCc2[nH]c(-c3ccnc(NC(=O)Cc4ccc(F)cc4)c3)c(Nc3cc(F)ccc3F)c2C1=O [Example 150, N-{4-[3-(2,5-difluoroanilino)-5-methyl-4-oxo-4,5,6,7-tetrahydro-1H-pyrrolo[3,2-c]pyridin-2-yl]pyridin-2-yl}-2-(4-fluorophenyl)acetamide] | 18.3 µM | 1270 nM | 17.9 nM | 26.6 nM | > 20 µM
17 | CN1C(=O)c2c([nH]c(-c3ccnc(NC(=O)C(CC(F)F)c4ccc(F)cc4)c3)c2Nc2ccccc2F)CC1(C)C (single isomer, unassigned) [Example 46, 4,4-difluoro-N-{4-[3-(2-fluoroanilino)-5,6,6-trimethyl-4-oxo-4,5,6,7-tetrahydro-1H-pyrrolo[3,2-c]pyridin-2-yl]pyridin-2-yl}-2-(4-fluorophenyl)butanamide] |  | 119 nM | 6.64 nM | 8.33 nM | > 20 µM
18 | CN1CCc2[nH]c(-c3ccnc(NC(=O)C(CO)c4ccc(F)cc4)c3)c(Nc3ccccc3)c2C1=O (single isomer, unassigned) [Example 18, N-[4-(3-anilino-5-methyl-4-oxo-4,5,6,7-tetrahydro-1H-pyrrolo[3,2-c]pyridin-2-yl)pyridin-2-yl]-2-(4-fluorophenyl)-3-hydroxypropanamide] |  | 1790 nM | 20.4 nM | 44.7 nM | 14.9 µM
19 | CC1Cc2[nH]c(-c3ccnc(NC(=O)C(CC(F)F)c4ccc(F)cc4)c3)c(Nc3ccccc3F)c2C(=O)N1C (single isomer, unassigned; (+)) [Example 108, (+)-4,4-difluoro-N-{4-[3-(2-fluoroanilino)-5,6-dimethyl-4-oxo-4,5,6,7-tetrahydro-1H-pyrrolo[3,2-c]pyridin-2-yl]pyridin-2-yl}-2-(4-fluorophenyl)butanamide] | > 20 µM | 8.33 nM | 3.27 nM | 4.62 nM | 
